Experimental data taken from patent US20260216294A1, “BETA 2-ADRENERGIC RECEPTOR AGONISTS FOR TREATMENT OR PREVENTION OF MUSCLE WASTING” (ATROGI AB, priority 2023, published 2026).

Experiments:
L6-myotubes [1] = test: Glucose uptake in differentiated L6-myotubes (Biological Example 2); assay type: cell-based; conditions: for Emax at 10 µM: read-out: Biological example 2 (GU)
Procedure, shortened: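 Differentiated L6 myotubes were serum-starved overnight in 0.5% fatty-acid-free BSA and then stimulated with compound or isoprenaline at 1×10^−5 M final. After 1 h 40 min cells were washed and re-dosed in glucose-free medium. Twenty minutes later, uptake of 50 nM ^3H-2-deoxyglucose over 10 min was measured by scintillation counting of NaOH lysates.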

L6-myotubes [2] = test: Measurement of intracellular cAMP levels in differentiated L6-myotubes (Biological Example 3); assay type: cell-based; conditions: for Emax at 10 µM: 0.25 h
Procedure, shortened: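 Serum-starved differentiated L6 myotubes stimulated 15 min with test compound at 1×10^−5 M final (isoprenaline as reference) in HBSS with 1% BSA, 5 mM HEPES, 1 mM IBMX, pH 7.4. Cells EtOH-extracted, lysed, and intracellular cAMP measured by AlphaScreen.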

[3] = glucose uptake, compound at 10 μM relative to isoproterenol at 10 μM
[4] = intracellular cAMP, compound at 10 μM relative to isoproterenol at 10 μM
[5] = glucose uptake in differentiated L6-myotubes, compound at 10 μM, activity relative to isoproterenol at 10 μM
[6] = intracellular cAMP in differentiated L6-myotubes, compound at 10 μM, activity relative to isoproterenol at 10 μM

Cc1c(F)cccc1[C@@H](O)CNC(C)(C)C [Compound 150, (R)-2-(tert-butylamino)-1-(3-fluoro-2-tolyl)-1-ethanol]
Emax at 10 µM (L6-myotubes [1]; [3]): > 75%
Emax at 10 µM (L6-myotubes [2]; [4]): 25 to 50%

CC(C)(C[C@H]1CC[C@@H](O)CC1)NC[C@H](O)c1cncc(F)c1 [Compound 301, (R)-2-{1,1-dimethyl-2-[(1s,4S)-4-hydroxycyclohexyl]ethylamino}-1-(5-fluoro-3-pyridyl)-1-ethanol]
Emax at 10 µM (L6-myotubes [1]; [5]): > 75%
Emax at 10 µM (L6-myotubes [2]; [6]): < 25%

CC(=O)N[C@H]1CC[C@H](CC(C)(C)NC[C@H](O)c2cccnc2C)CC1 [Compound 434]
Emax at 10 µM (L6-myotubes [1]; [5]): > 75%
Emax at 10 µM (L6-myotubes [2]; [6]): < 25%

CCC[C@@H]1CC[C@H]([C@H](O)c2cncc(F)c2)N1 [Compound 161]
Biological example 2 (GU) (L6-myotubes [1]; [3]): + (if it is between 50 and 25% it is denoted with +)
Biological example 3 (CAMP) (L6-myotubes [2]; [4]): − (if it less than 25% it is denoted with −)

CC(C)(NC[C@H](O)c1cncc(F)c1)[C@H]1CC[C@H](C(=O)O)CC1 [Compound 390, (1R,4r)-8-[(R)-2-(5-fluoro-3-pyridyl)-2-hydroxyethylamino]-7-hydroxy-p-menthan-7-one]
Emax at 10 µM (L6-myotubes [1]; [5]): 50 to 75%
Emax at 10 µM (L6-myotubes [2]; [6]): < 25%

CCC[C@@H]1CC[C@H]([C@H](O)c2cncc(F)c2)N1 [Compound 160, (R)-[(2R,5R)-5-propyl-2-pyrrolidinyl](5-fluoro-3-pyridyl)methanol]
Biological example 2 (GU) (L6-myotubes [1]; [3]): +++ (If a compound at 10 μM shows activity of more than 75% of that of isoproterenol at 10 μM, the activity is denoted with +++)
Emax at 10 µM (L6-myotubes [2]; [4]): < 25%

CC1(C)C[C@@H]([C@H](O)c2cccc(Cl)c2)N1 [Compound 232]
Emax at 10 µM (L6-myotubes [1]; [5]): 25 to 50%
Emax at 10 µM (L6-myotubes [2]; [6]): < 25%

CS(=O)(=O)Nc1ccc(CC23CCC([C@H](O)c4cccc(F)c4)(CC2)N3)cc1 [Compound 475, (R)-(m-fluorophenyl)(4-{[p-(mesylamino)phenyl]methyl}-7-azabicyclo[[2.2.1]]hept-1-yl)methanol]
Emax at 10 µM (L6-myotubes [1]; [5]): 50 to 75%
Emax at 10 µM (L6-myotubes [2]; [6]): < 25%

CC(C)(C[C@H]1CC[C@@H](NS(C)(=O)=O)CC1)NC[C@@H](O)c1cccc(C#N)n1 [Compound 424, 6-[(R)-2-{1,1-dimethyl-2-[(1s,4S)-4-(mesylamino)cyclohexyl]ethylamino}-1-hydroxyethyl]-2-pyridinecarbonitrile]
Emax at 10 µM (L6-myotubes [1]; [5]): 25 to 50%
Emax at 10 µM (L6-myotubes [2]; [6]): < 25%

CC(=O)N[C@H]1CC[C@H](CC(C)(C)NC[C@H](O)c2cccc(C(F)(F)F)n2)CC1 [Compound 460]
Emax at 10 µM (L6-myotubes [1]; [5]): 50 to 75%
Emax at 10 µM (L6-myotubes [2]; [6]): < 25%

CCC[C@@H]1CC[C@H]([C@H](O)c2ccccc2Cl)N1 [Compound 148, (R)-[(2R,5R)-5-propyl-2-pyrrolidinyl](o-chlorophenyl)methanol]
Emax at 10 µM (L6-myotubes [1]; [3]): > 75%
Emax at 10 µM (L6-myotubes [2]; [4]): < 25%

CO[C@H]1CC[C@H](C(C)(C)NC[C@H](O)c2cccc(F)c2)CC1 [Compound 239, (R)-1-(m-fluorophenyl)-2-{1-methyl-1-[(1r,4R)-4-methoxycyclohexyl]ethylamino}-1-ethanol]
Emax at 10 µM (L6-myotubes [1]; [5]): > 75%
Emax at 10 µM (L6-myotubes [2]; [6]): < 25%

O[C@H](c1cccc(F)c1)C12CCC(COc3ccc(Cl)cc3)(CC1)N2 [Compound 441, (R)-{4-[(p-chlorophenoxy)methyl]-7-azabicyclo[[2.2.1]]hept-1-yl}(m-fluorophenyl)methanol]
Emax at 10 µM (L6-myotubes [1]; [5]): > 75%
Emax at 10 µM (L6-myotubes [2]; [6]): < 25%

CC12CC(C1)[C@H]([C@@H](O)c1cccc(F)c1)N2 [Compound 187]
Emax at 10 µM (L6-myotubes [1]; [3]): 25 to 50%
Emax at 10 µM (L6-myotubes [2]; [4]): < 25%

CC1(C)C[C@@H]([C@H](O)c2ccccc2F)N1 [Compound 202, (R)-[(S)-4,4-dimethyl-2-azetidinyl](o-fluorophenyl)methanol]
Emax at 10 µM (L6-myotubes [1]; [5]): < 25%
Emax at 10 µM (L6-myotubes [2]; [6]): < 25%

O[C@@H](CNCC[C@H]1CC[C@H](O)CC1)c1cncc(F)c1 [Compound 294, (R)-1-(5-fluoro-3-pyridyl)-2-{2-[(1r,4R)-4-hydroxycyclohexyl]ethylamino}-1-ethanol]
Emax at 10 µM (L6-myotubes [1]; [5]): 25 to 50%
Emax at 10 µM (L6-myotubes [2]; [6]): < 25%

CC(C)(C)NC[C@H](O)c1ccc(F)c(O)c1 [Compound 84, (R)-2-(tert-butylamino)-1-(4-fluoro-3-hydroxyphenyl)-1-ethanol]
Emax at 10 µM (L6-myotubes [1]; [3]): > 75%
Emax at 10 µM (L6-myotubes [2]; [4]): 50 to 75%

CNS(=O)(=O)[C@H]1CC[C@@H](CC(C)(C)NC[C@H](O)c2cncc(F)c2)CC1 [Compound 495]
Emax at 10 µM (L6-myotubes [1]; [5]): 50 to 75%
Emax at 10 µM (L6-myotubes [2]; [6]): < 25%

O[C@@H](CNC[C@H]1CC[C@H](OCc2ccccc2)CC1)c1cccc(F)c1 [Compound 271, (R)-1-(m-fluorophenyl)-2-({[(1r,4R)-4-(benzyloxy)cyclohexyl]methyl}amino)-1-ethanol]
Emax at 10 µM (L6-myotubes [1]; [5]): 25 to 50%
Emax at 10 µM (L6-myotubes [2]; [6]): < 25%

CCCCNC[C@H](O)c1ccc(F)c(O)c1 [Compound 85, (R)-2-(butylamino)-1-(4-fluoro-3-hydroxyphenyl)-1-ethanol]
Emax at 10 µM (L6-myotubes [1]; [3]): > 75%
Emax at 10 µM (L6-myotubes [2]; [4]): < 25%

CS(=O)(=O)N[C@H]1CC[C@H](CNC[C@H](O)c2cncc(F)c2)CC1 [Compound 313]
Emax at 10 µM (L6-myotubes [1]; [5]): 25 to 50%
Emax at 10 µM (L6-myotubes [2]; [6]): < 25%

CC(=O)N(Cc1ccccc1)[C@H]1CC[C@H](C[C@@H]2CC[C@H]([C@@H](O)c3cccc(F)c3)N2)CC1 [Compound 481, N-[(1S,4r)-4-({(2S,5R)-5-[(S)-(m-fluorophenyl) hydroxymethyl]-2-pyrrolidinyl}methyl)cyclohexyl]-N-benzylacetamide]
Emax at 10 µM (L6-myotubes [1]; [5]): < 25%
Emax at 10 µM (L6-myotubes [2]; [6]): < 25%

CC(C)(C[C@H]1CC[C@H](NS(=O)(=O)C(F)(F)F)CC1)NC[C@H](O)c1cccc(F)c1 [Compound 458]
Emax at 10 µM (L6-myotubes [1]; [5]): > 75%
Emax at 10 µM (L6-myotubes [2]; [6]): < 25%

C[C@H]1CC[C@@H]([C@H](O)c2ccccc2)N1 (racemic) [Compound 38, Racemic mixture of (R)-[(2S,5S)-5-methyl-2-pyrrolidinyl]phenylmeth anol and (S)-[(2R,5R)-5-methyl-2-pyrrolidinyl]] phenylmethanol]
Emax at 10 µM (L6-myotubes [1]; [3]): 25 to 50%
Emax at 10 µM (L6-myotubes [2]; [4]): < 25%

CC1(C)CCC[C@H]([C@H](O)c2cccc(O)c2)N1 [Compound 104, (R)-[(R)-6,6-dimethyl-2-piperidyl](m-hydroxyphenyl)methanol]
Emax at 10 µM (L6-myotubes [1]; [3]): 25 to 50%
Emax at 10 µM (L6-myotubes [2]; [4]): < 25%

CO[C@H]1CC[C@@H](C(C)(C)NC[C@H](O)c2cccc(F)c2)CC1 [Compound 251, (R)-1-(m-fluorophenyl)-2-{1-methyl-1-[(1s,4S)-4-methoxycyclohexyl]ethylamino}-1-ethanol]
Emax at 10 µM (L6-myotubes [1]; [5]): < 25%
Emax at 10 µM (L6-myotubes [2]; [6]): < 25%

CC1(C)CC[C@H]([C@H](O)c2cncc(O)c2)N1 [Compound 167, 5-{(R)-[(R)-5,5-dimethyl-2-pyrrolidinyl] hydroxymethyl}-3-pyridinol]
Emax at 10 µM (L6-myotubes [1]; [3]): 50 to 75%
Emax at 10 µM (L6-myotubes [2]; [4]): < 25%

CCC[C@H]1CCC[C@@H]([C@@H](O)c2cccc(F)c2)N1 [Compound 119]
Emax at 10 µM (L6-myotubes [1]; [3]): 25 to 50%
Emax at 10 µM (L6-myotubes [2]; [4]): < 25%

CO[C@H]1CC[C@@H](CCNC[C@H](O)c2cncc(F)c2)CC1 [Compound 238, (R)-1-(5-fluoro-3-pyridyl)-2-{2-[(1s,4S)-4-methoxycyclohexyl]ethylamino}-1-ethanol]
Emax at 10 µM (L6-myotubes [1]; [5]): > 75%
Emax at 10 µM (L6-myotubes [2]; [6]): < 25%

CC(=O)N(Cc1ccccc1)[C@H]1CC[C@H](C[C@@H]2CC[C@H]([C@H](O)c3cccc(F)c3)N2)CC1 [Compound 482, N-[(1S,4r)-4-({(2S,5R)-5-[(R)-(m-fluorophenyl) hydroxymethyl]-2-pyrrolidinyl}methyl)cyclohexyl]-N-benzylacetamide]
Emax at 10 µM (L6-myotubes [1]; [5]): < 25%
Emax at 10 µM (L6-myotubes [2]; [6]): < 25%

CC(C)(C[C@H]1CC[C@H](N)CC1)NC[C@H](O)c1cccc(C#N)n1 [Compound 417]
Emax at 10 µM (L6-myotubes [1]; [5]): > 75%
Emax at 10 µM (L6-myotubes [2]; [6]): 25 to 50%

CCC[C@H]1CCC[C@H]([C@H](O)c2cc(F)cc(F)c2)N1 [Compound 68]
Emax at 10 µM (L6-myotubes [1]; [3]): 50 to 75%
Emax at 10 µM (L6-myotubes [2]; [4]): < 25%

CO[C@H]1CC[C@H](C[C@H]2CC[C@H]([C@H](O)c3cncc(F)c3)N2)CC1 [Compound 341]
Emax at 10 µM (L6-myotubes [1]; [5]): > 75%
Emax at 10 µM (L6-myotubes [2]; [6]): < 25%

CCC[C@H]1CC[C@@H]([C@@H](O)c2cccc(F)c2)N1 [Compound 131, (S)-[(2S,5S)-5-propyl-2-pyrrolidinyl](m-fluorophenyl)methanol]
Emax at 10 µM (L6-myotubes [1]; [3]): 50 to 75%
Emax at 10 µM (L6-myotubes [2]; [4]): < 25%

CC1(C)C[C@H]([C@@H](O)c2cccc(Cl)c2)N1 [Compound 233, (S)-[(R)-4,4-dimethyl-2-azetidinyl](m-chlorophenyl)methanol]
Emax at 10 µM (L6-myotubes [1]; [5]): < 25%
Emax at 10 µM (L6-myotubes [2]; [6]): < 25%

CCC[C@H]1CCC[C@@H]([C@H](O)c2cccc(F)c2)N1 [Compound 120]
Emax at 10 µM (L6-myotubes [1]; [3]): 50 to 75%
Emax at 10 µM (L6-myotubes [2]; [4]): < 25%

CC1(C)C[C@@H]([C@@H](O)c2ccccc2F)N1 [Compound 205, (S)-[(S)-4,4-dimethyl-2-azetidinyl](o-fluorophenyl)methanol]
Emax at 10 µM (L6-myotubes [1]; [5]): 25 to 50%
Emax at 10 µM (L6-myotubes [2]; [6]): < 25%

CO[C@H]1CC[C@H](CCCNC[C@H](O)c2cncc(F)c2)CC1 [Compound 261, (R)-1-(5-fluoro-3-pyridyl)-2-{3-[(1r,4S)-4-methoxycyclohexyl]propylamino}-1-ethanol]
Emax at 10 µM (L6-myotubes [1]; [5]): < 25%
Emax at 10 µM (L6-myotubes [2]; [6]): < 25%

CCCCNCC(O)c1cccc(O)c1 (stereo not drawn) [Compound 15, 2-(butylamino)-1-(m-hydroxyphenyl)-1-ethanol]
Emax at 10 µM (L6-myotubes [1]; [3]): 50 to 75%
Emax at 10 µM (L6-myotubes [2]; [4]): < 25%
